{"source": "the NIST ThermoML archive (doi:10.1016/j.jct.2019.03.008)", "key": {"[1]": {"test": "Boiling temperature at pressure P", "conditions": "Liquid, DSC"}, "[2]": {"conditions": "Crystal; DTA"}}, "note": "± gives the expanded uncertainty stated by the source.", "data": [{"smiles": "Oc1ccccc1O", "note": "[1,2-benzenediol]", "values": [{"measurement": "Boiling temperature at pressure P", "setting": "[1]; 2.95 kPa", "result": "139.1 ± 1.5", "unit": "°C"}, {"measurement": "Boiling temperature at pressure P", "setting": "[1]; 3.93 kPa", "result": "145.5 ± 1.8", "unit": "°C"}, {"measurement": "Boiling temperature at pressure P", "setting": "[1]; 4.93 kPa", "result": "150.7 ± 2", "unit": "°C"}]}, {"smiles": "Oc1cccc(O)c1", "note": "[1,3-benzenediol]", "values": [{"measurement": "Boiling temperature at pressure P", "setting": "[1]; 2.95 kPa", "result": "171.6 ± 1.6", "unit": "°C"}, {"measurement": "Boiling temperature at pressure P", "setting": "[1]; 3.93 kPa", "result": "178.2 ± 1.9", "unit": "°C"}, {"measurement": "Boiling temperature at pressure P", "setting": "[1]; 4.93 kPa", "result": "183.7 ± 2.1", "unit": "°C"}]}, {"smiles": "CCCCCCc1ccc(O)cc1O", "note": "[1,3-dihydroxy-4-hexylbenzene]", "values": [{"measurement": "Normal melting temperature", "setting": "[2]", "result": "67.0 ± 0.4", "unit": "°C"}, {"measurement": "Boiling temperature at pressure P", "setting": "[1]; 1.95 kPa", "result": "201.0 ± 1.6", "unit": "°C"}, {"measurement": "Boiling temperature at pressure P", "setting": "[1]; 2.95 kPa", "result": "211.0 ± 2.2", "unit": "°C"}, {"measurement": "Boiling temperature at pressure P", "setting": "[1]; 3.87 kPa", "result": "218.7 ± 1.9", "unit": "°C"}, {"measurement": "Boiling temperature at pressure P", "setting": "[1]; 5.42 kPa", "result": "227.1 ± 2", "unit": "°C"}, {"measurement": "Boiling temperature at pressure P", "setting": "[1]; 7.89 kPa", "result": "238 ± 2.4", "unit": "°C"}, {"measurement": "Boiling temperature at pressure P", "setting": "[1]; 9.9 kPa", "result": "244.6 ± 2.6", "unit": "°C"}, {"measurement": "Boiling temperature at pressure P", "setting": "[1]; 19.83 kPa", "result": "267 ± 2.8", "unit": "°C"}, {"measurement": "Boiling temperature at pressure P", "setting": "[1]; 29.78 kPa", "result": "281.4 ± 2.6", "unit": "°C"}, {"measurement": "Boiling temperature at pressure P", "setting": "[1]; 49.68 kPa", "result": "301.2 ± 3.3", "unit": "°C"}, {"measurement": "Boiling temperature at pressure P", "setting": "[1]; 69.58 kPa", "result": "315.0 ± 3.6", "unit": "°C"}, {"measurement": "Boiling temperature at pressure P", "setting": "[1]; 79.52 kPa", "result": "321.4 ± 3.4", "unit": "°C"}, {"measurement": "Boiling temperature at pressure P", "setting": "[1]; 100.93 kPa", "result": "332.4 ± 4", "unit": "°C"}, {"measurement": "Boiling temperature at pressure P", "setting": "[1]; 198.33 kPa", "result": "364.4 ± 5", "unit": "°C"}, {"measurement": "Boiling temperature at pressure P", "setting": "[1]; 223.29 kPa", "result": "371.5 ± 4.5", "unit": "°C"}, {"measurement": "Boiling temperature at pressure P", "setting": "[1]; 250.21 kPa", "result": "378 ± 4.6", "unit": "°C"}]}, {"smiles": "CCCc1c(O)cccc1O", "note": "[2-propylresorcinol]", "values": [{"measurement": "Normal melting temperature", "setting": "[2]", "result": "104.8 ± 0.4", "unit": "°C"}, {"measurement": "Boiling temperature at pressure P", "setting": "[1]; 9.92 kPa", "result": "197.5 ± 1.6", "unit": "°C"}, {"measurement": "Boiling temperature at pressure P", "setting": "[1]; 19.83 kPa", "result": "218.2 ± 2.6", "unit": "°C"}, {"measurement": "Boiling temperature at pressure P", "setting": "[1]; 29.79 kPa", "result": "231.6 ± 2.4", "unit": "°C"}, {"measurement": "Boiling temperature at pressure P", "setting": "[1]; 49.69 kPa", "result": "250.2 ± 3.1", "unit": "°C"}, {"measurement": "Boiling temperature at pressure P", "setting": "[1]; 69.61 kPa", "result": "263.2 ± 3", "unit": "°C"}, {"measurement": "Boiling temperature at pressure P", "setting": "[1]; 98.91 kPa", "result": "278.0 ± 2.7", "unit": "°C"}, {"measurement": "Boiling temperature at pressure P", "setting": "[1]; 198.31 kPa", "result": "309.6 ± 4.2", "unit": "°C"}, {"measurement": "Boiling temperature at pressure P", "setting": "[1]; 299.37 kPa", "result": "332.2 ± 4.1", "unit": "°C"}, {"measurement": "Boiling temperature at pressure P", "setting": "[1]; 400.46 kPa", "result": "345.8 ± 4.1", "unit": "°C"}]}, {"smiles": "CCc1ccc(O)cc1O", "note": "[4-ethylresorcinol]", "values": [{"measurement": "Normal melting temperature", "setting": "[2]", "result": "97.2 ± 0.4", "unit": "°C"}, {"measurement": "Boiling temperature at pressure P", "setting": "[1]; 9.92 kPa", "result": "207.4 ± 1.6", "unit": "°C"}, {"measurement": "Boiling temperature at pressure P", "setting": "[1]; 19.87 kPa", "result": "228.2 ± 2.6", "unit": "°C"}, {"measurement": "Boiling temperature at pressure P", "setting": "[1]; 29.79 kPa", "result": "241.4 ± 2.4", "unit": "°C"}, {"measurement": "Boiling temperature at pressure P", "setting": "[1]; 49.73 kPa", "result": "259.6 ± 3", "unit": "°C"}, {"measurement": "Boiling temperature at pressure P", "setting": "[1]; 69.64 kPa", "result": "272.6 ± 3", "unit": "°C"}, {"measurement": "Boiling temperature at pressure P", "setting": "[1]; 98.43 kPa", "result": "287.0 ± 2.6", "unit": "°C"}, {"measurement": "Boiling temperature at pressure P", "setting": "[1]; 198.31 kPa", "result": "318.6 ± 4", "unit": "°C"}, {"measurement": "Boiling temperature at pressure P", "setting": "[1]; 299.37 kPa", "result": "339.8 ± 4.3", "unit": "°C"}, {"measurement": "Boiling temperature at pressure P", "setting": "[1]; 400.09 kPa", "result": "356.2 ± 5.1", "unit": "°C"}]}]}
